Consider 35 compounds from patent publication US20170369492A1 (Takeda Pharmaceutical Company Limited, priority 2014, published 2017).

The target of the assay is T1, human GPR43 (Homo sapiens, UniProt O15552).
T1 construct: expressed in transfected cells
T1 sequence (O15552 1-330): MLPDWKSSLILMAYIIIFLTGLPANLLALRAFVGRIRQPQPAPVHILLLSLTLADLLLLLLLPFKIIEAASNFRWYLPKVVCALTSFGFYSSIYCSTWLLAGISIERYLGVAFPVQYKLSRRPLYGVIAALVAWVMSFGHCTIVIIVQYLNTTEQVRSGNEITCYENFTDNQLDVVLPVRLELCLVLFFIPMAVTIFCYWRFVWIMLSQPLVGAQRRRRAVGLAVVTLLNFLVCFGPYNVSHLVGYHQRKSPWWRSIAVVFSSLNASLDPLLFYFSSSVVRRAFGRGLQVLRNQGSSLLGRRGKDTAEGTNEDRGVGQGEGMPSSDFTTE
The assay is described as follows: Ca-Flux Functional Assay: Determination of Agonist/Positive Allosteric Modulator (PAM) Activity. The settings on record: CHO-K1 Gα16 cells stably expressing human GPR43; compound added in the presence of EC20 sodium acetate; intracellular Ca2+ by FLIPR; agonist/PAM activity not distinguished. The class given is cell-based. On the procedure:
Ca-Flux Functional Assay: Determination of Agonist/Positive Allosteric Modulator (PAM) Activity
GPR43 agonist/PAM activity was determined by measuring changes in intracellular calcium levels using a Ca^2+ sensitive fluorescent dye. The changes in fluorescent signal were monitored by FLIPR (manufactured by Molecular Devices). GPR43 mediated increases in intracellular Ca^2+ concentration were readily detected upon activation with sodium acetate. Prior to the assay (24 hours), CHO-K1 Gα16 cells stably expressing human GPR43 were-seeded in cell culture medium in black, clear-bottom 384-well plates (Corning Inc) and grown overnight at 37° C., 5% CO2. On the day of the assay, cell culture media was removed and cells were loaded with Calcium 5 Dye (Molecular Devices) diluted in HBSS containing 25 mM HEPES, 2.5 mM Probenecid, 0.1% BSA for 1 hour at 37° C., 5% CO2. 10 point half log concentration response curves of sodium acetate from 10 mM were conducted prior to the testing of compounds to calculate the sodium acetate concentration that produces 20% of the maximal response (EC20). Test compounds (at to point half log concentration response curves from 10 μM) were added in the presence of sodium acetate to achieve a final concentration that produces approximately 20% maximal response as calculated from the previous experiment. The changes in fluorescent signal were monitored by FLIPR upon addition of the compound/EC20 sodium acetate mix. The EC50 values were determined from ten point concentration response curves. Curves were generated using the average of two wells for each data point.
The above assay detects both GPR43 receptor agonists and positive allosteric modulators of the GPR43 receptor, without distinguishing between the two. Activity in either regard is useful in the treatment of conditions associated with GPR43 receptor activity.
Regarding `CN(C)c1ncnc2c(S(=O)(=O)c3ccccc3)c(N)n(C3CCCCC3)c12` [Example 34, 7-(benzenesulfonyl)-5-cyclohexyl-4-N,4-N-dimethyl-5H-pyrrolo[3,2-d]pyrimidine-4,6-diamine], the EC50 was found to be 5.98 µM.
As for `COc1ncnc2c(S(=O)(=O)c3ccccc3)c(N)n(C3CCCC3)c12` [Example 35, 7-(benzenesulfonyl)-5-cyclopentyl-4-methoxy-5H-pyrrolo[3,2-d]pyrimidin-6-amine], the figure is 1.86 µM; as for `COc1nccc2c(S(=O)(=O)c3ccccc3)c(N)n(C3CCCCC3)c12` [Example 36, 3-(benzenesulfonyl)-1-cyclohexyl-7-methoxy-1-pyrrolo[2,3-c]pyridin-2-amine], 0.245 µM.
Regarding `N#Cc1ncnc2c(S(=O)(=O)c3ccccc3)c(N)n(C3CCCCC3)c12` [Example 37, 6-amino-7-(benzenesulfonyl)-5-cyclohexyl-5H-pyrrolo[3,2-d]pyrimidine-4-carbonitrile], the EC50 came to 0.468 µM.
Turning to `COc1nc(C)nc2c(S(=O)(=O)c3ccccc3F)c(N)n(C3CCCCC3)c12` [Example 38, 5-cyclohexyl-7-(2-fluorobenzenesulfonyl)-4-methoxy-2-methyl-5H-pyrrolo[3,2-d]pyrimidin-6-amine], the EC50 stood at 0.169 µM.
Take `COc1nc(C)nc2c(S(=O)(=O)c3cccc(F)c3)c(N)n(C3CCCCC3)c12` [Example 39, 5-cyclohexyl-7-(3-fluorobenzenesulfonyl)-4-methoxy-2-methyl-5H-pyrrolo[3,2-d]pyrimidin-6-amine]: the EC50 came to 0.657 µM.
As for `COc1ncnc2c(S(=O)(=O)c3ccccc3)c(N)n(C3CCOCC3)c12` [Example 40, 7-(benzenesulfonyl)-4-methoxy-5-(oxan-4-yl)-5H-pyrrolo[3,2-d]pyrimidin-6-amine], the figure is 7.38 µM; as for `Nc1c(S(=O)(=O)Nc2ccccc2)c2nccnc2n1C1CCCCC1` [Example 41, 6-amino-5-cyclohexyl-N-phenyl-5H-pyrrolo[2,3-b]pyrazine-7-sulfonamide], 0.585 µM; as for `Nc1c(S(=O)(=O)Nc2cccnc2)c2nccnc2n1C1CCCCC1` [Example 42, 6-amino-5-cyclohexyl-N-(pyridin-3-yl)-5H-pyrrolo[2,3-b]pyrazine-7-sulfonamide], 2.3 µM.
Take `Nc1c(S(=O)(=O)c2ccccc2)c2nccnc2n1C1CCC1` [Example 43, 5-cyclobutyl-7-(phenylsulfonyl)-5H-pyrrolo[2,3-b]pyrazin-6-amine]: the EC50 worked out at 6.99 µM.
As for `CCCCn1c(N)c(S(=O)(=O)c2ccccc2)c2nccnc21` [Example 45, 5-butyl-7-5(phenylsulfonyl)-5H-pyrrolo[2,3-b]pyrazin-6-amine], the figure is 2.89 µM.
As for `Nc1c(S(=O)(=O)c2ccccc2)c2nccnc2n1CCc1ccccc1` [Example 46, 5-phenethyl-7-(phenylsulfonyl)-5H-pyrrolo[2,3-b]pyrazin-6-amine], the EC50 is 5.26 µM.
Regarding `Nc1c(S(=O)(=O)c2ccccc2)c2nccnc2n1C1CCCCC1O` (centres unmarked) [Example 47, 2-(6-amino-7-(phenylsulfonyl)-5H-pyrrolo[2,3-b]pyrazin-5-yl)cyclohexanol], the EC50 stood at 6.49 µM.
As for `Nc1c(S(=O)(=O)c2ccccc2)c2nccnc2n1CCC1CC1` [Example 48, 5-(2-cyclopropylethyl)-7-(phenylsulfonyl)-5H-pyrrolo[2,3-b]pyrazin-6-amine], the figure is 3.26 µM.
With `Nc1c(S(=O)(=O)c2ccccc2)c2nccnc2n1C1CCC(F)(F)CC1` [Example 49, 5-(4,4-difluoro-cyclohexyl)-7-(phenylsulfonyl)-5H-pyrrolo[2,3-b]pyrazin-6-amine], the EC50 is 0.211 µM.
Turning to `Nc1c(S(=O)(=O)c2ccccc2)c2nccnc2n1CCC1CCC1` [Example 50, 5-(2-cyclobutylethyl)-7-(phenylsulfonyl)-5H-pyrrolo[2,3-b]pyrazin-6-amine], the EC50 came out at 0.76 µM.
As for `Nc1c(S(=O)(=O)c2ccccc2)c2nccnc2n1C1CCCOC1` (centres unmarked) [Example 51, 7-(phenylsulfonyl)-5-(tetrahydro-2H-pyran-3-yl)-5H-pyrrolo[2,3-b]pyrazin-6-amine], the figure is 6 µM.
`CC(C)(C)CCn1c(N)c(S(=O)(=O)c2ccccc2)c2nccnc21` [Example 52, 5-(3,3-dimethylbutyl)-7-(phenylsulfonyl)-5H-pyrrolo[2,3-b]pyrazin-6-amine]: the EC50 was determined as 0.822 µM.
As for `Nc1c(S(=O)(=O)c2ccccc2)c2nccnc2n1CC1CCCC1` [Example 54, 5-(cyclopentylmethyl)-7-(phenylsulfonyl)-5H-pyrrolo[2,3-b]pyrazin-6-amine], the figure is 1.54 µM; as for `CCC1(Cn2c(N)c(S(=O)(=O)c3ccccc3)c3nccnc32)CC1` [Example 55, 5-((1-ethylcyclopropyl)-methyl)-7-(phenylsulfonyl)-5H-pyrrolo[2,3-b]pyrazin-6-amine], 7.17 µM.
For the compound `CC1(C)CC1Cn1c(N)c(S(=O)(=O)c2ccccc2)c2nccnc21` (centres unmarked) [Example 56, 5-((2,2-dimethylcyclopropyl)methyl)-7-(phenylsulfonyl)-5H-pyrrolo[2,3-b]pyrazin-6-amine], the EC50 amounted to 1.3 µM.
Consider `Nc1c(S(=O)(=O)N2CCCCC2)c2nccnc2n1C1CCCCC1` [Example 57, 5-cyclohexyl-7-(piperidin-1-ylsulfonyl)-5H-pyrrolo[2,3-b]pyrazin-6-amine], for which the EC50 stood at 0.259 µM.
As for `Nc1c(S(=O)(=O)N2CCCC2)c2nccnc2n1C1CCCCC1` [Example 58, 5-cyclohexyl-7-(pyrrolidin-1-ylsulfonyl)-5H-pyrrolo[2,3-b]pyrazin-6-amine], the figure is 2.24 µM; as for `CCCNS(=O)(=O)c1c(N)n(C2CCCCC2)c2nccnc12` [Example 59, 6-amino-5-cyclohexyl-N-propyl-5H-pyrrolo[2,3-b]pyrazine-7-sulfonamide], 0.792 µM.
For the compound `CCCN(C)S(=O)(=O)c1c(N)n(C2CCCCC2)c2nccnc12` [Example 60, 6-amino-5-cyclohexyl-N-methyl-N-propyl-5H-pyrrolo[2,3-b]pyrazine-7-sulfonamide], the EC50 worked out at 1.41 µM.
Turning to `Nc1c(S(=O)(=O)N2CCOCC2)c2nccnc2n1C1CCCCC1` [Example 61, 5-cyclohexyl-7-(morpholinosulfonyl)-5H-pyrrolo[2,3-b]pyrazin-6-amine], the EC50 stood at 4.32 µM.
As to `CC1CCN(S(=O)(=O)c2c(N)n(C3CCCCC3)c3nccnc23)CC1` [Example 62, 5-cyclohexyl-7-((4-methylpiperidin-1-yl)sulfonyl)-5H-pyrrolo[2,3-b]pyrazin-6-amine], the EC50 was found to be 0.303 µM.
Regarding `CN1CCN(S(=O)(=O)c2c(N)n(C3CCCCC3)c3nccnc23)CC1` [Example 63, 5-cyclohexyl-7-((4-methylpiperazin-1-yl)sulfonyl)-5H-pyrrolo[2,3-b]pyrazin-6-amine], the EC50 worked out at 7.95 µM.
As for `COC1CN(S(=O)(=O)c2c(N)n(C3CCCCC3)c3nccnc23)C1` [Example 64, 5-cyclohexyl-7-((3-methoxyazetidin-1-yl)sulfonyl)-5H-pyrrolo[2,3-b]pyrazin-6-amine], the figure is 7.13 µM; as for `CCOC1CCN(S(=O)(=O)c2c(N)n(C3CCCCC3)c3nccnc23)CC1` [Example 65, 5-cyclohexyl-7-((4-ethoxypiperidin-1-yl)sulfonyl)-5H-pyrrolo[2,3-b]pyrazin-6-amine], 0.21 µM.
Take `CC1(C)CCN(S(=O)(=O)c2c(N)n(C3CCCCC3)c3nccnc23)CC1` [Example 66, 5-cyclohexyl-7-((4,4-dimethylpiperidin-1-yl)sulfonyl)-5H-pyrrolo[2,3-b]pyrazin-6-amine]: the EC50 stood at 0.327 µM.
For `CC1CCN(S(=O)(=O)c2c(N)n(C3CCCCC3)c3nccnc23)C1` (centres unmarked) [Example 67, 5-cyclohexyl-7-((3-methylpyrrolidin-1-yl)sulfonyl)-5H-pyrrolo[2,3-b]pyrazin-6-amine], the EC50 was determined as 0.83 µM.
As to `CC1CCCN1S(=O)(=O)c1c(N)n(C2CCCCC2)c2nccnc12` (centres unmarked) [Example 68, 5-cyclohexyl-7-((2-methylpyrrolidin-1-yl)sulfonyl)-5H-pyrrolo[2,3-b]pyrazin-6-amine], the EC50 was 1.47 µM.
`Nc1c(S(=O)(=O)N2CCC(F)(F)CC2)c2nccnc2n1C1CCCCC1` [Example 69, 5-cyclohexyl-7-((4,4-difluoropiperidin-1-yl)sulfonyl)-5H-pyrrolo[2,3-b]pyrazin-6-amine]: the EC50 worked out at 0.547 µM.
Consider `Nc1c(S(=O)(=O)NCc2ccccc2)c2nccnc2n1C1CCCCC1` [Example 70, 6-amino-N-benzyl-5-cyclohexyl-5H-pyrrolo[2,3-b]pyrazine-7-sulfonamide], for which the EC50 came out at 3.28 µM.
